This is an account of results in US6136552A, “High-affinity salicylic acid-binding protein and methods of use” (Rutgers, The State University of New Jersey, priority 1997, dated 2000).

For assay [1], the target named is T1, SABP2 (Nicotiana tabacum, UniProt Q6RYA0).
T1 construct: Soluble proteins were extracted from the powdered leaves; from tissue; host or cells: tobacco leaf (cv. Xanthi nc), 50-75% ammonium sulfate fraction
T1 sequence (Q6RYA0 1-260): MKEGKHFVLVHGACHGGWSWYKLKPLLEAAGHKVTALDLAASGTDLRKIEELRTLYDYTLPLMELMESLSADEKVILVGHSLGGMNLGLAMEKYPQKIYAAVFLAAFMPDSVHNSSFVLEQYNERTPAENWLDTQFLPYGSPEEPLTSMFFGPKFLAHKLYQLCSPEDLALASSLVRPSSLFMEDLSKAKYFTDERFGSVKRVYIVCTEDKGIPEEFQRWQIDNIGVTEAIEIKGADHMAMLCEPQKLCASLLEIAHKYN
In words: [3H]SA competition assay with unlabeled SA and SA analogues. The format is binding, tobacco. How it is done:
(§1) [3H]SA binding and competition assays. […] Spin columns were prepared by packing Sephadex G25 gel (exclusion limit 5 kDa; Pharmacia), which was pre-equilibrated in buffer A, in a 1-mL disposable syringe and centrifuging at 1,000 g for 4 minutes at 4° C. This process was repeated until the bed volume of the spin column reached 1 mL. One additional spin with 125 μL buffer A was performed under the same centrifugation conditions. The binding mixture (125 μL) was loaded onto the spin column and immediately centrifuged. […] When no protein extract was included in the binding mixture, the background radioactivity level was 33±3 dpm/100 μL. For the boiling treatment, the extract was boiled for 5 minutes and denatured protein aggregates were removed by centrifugation at 12,000 g for 1 minute.

Assay [2] concerns PR gene expression and enhanced disease resistance. More on the design: key to Biological activity: +, active; -, inactive. The conditions noted are these: cited from earlier work; for Biological activity: based on FIG. 7 and literature.
Assay [3] addresses T1, SABP2. In words: [3H]SA binding assay (kinetics, reversibility, saturation, Scatchard plot). Set-up: species or system tobacco. To be noted: for time until binding is complete / approaches equilibrium: 0-4° C. The procedure: as §1
The next assay relates to PR-1 gene expression. In words: Induction of PR-1 gene expression in leaf discs (northern blot). The format is cell-based, tobacco. To be noted: Nicotiana tabacum, foliar, 24 hours after treatment, read-out: concentration giving 15-fold induction of PR-1 gene expression. The source says: As a control, rRNA present in each lane is also shown. FIG. 7B is a graph showing quantification of the fold-induction of the PR-1 mRNA levels after SA (.cndot.) and BTH (.smallcircle.) treatment. The levels of PR-1 mRNA were normalized to the amounts of rRNA. The rRNA-normalized levels of PR-1 mRNA obtained after infiltration of leaf discs with SA or BTH were divided by the rRNA-normalized level of PR-1 mRNA obtained after infiltration with water only to determine the fold induction. The data presented are from a single experiment; two additional experiments were done. The maximum-fold induction of the PR-1 genes and the concentrations of SA and BTH required to reach approximately 50% of this value varied somewhat among the three experiments, depending on the age of the plant. In the three experiments, the concentrations of BTH needed to reach approximately 50% induction were 30- to 40-fold lower than those for SA.

Assay [4] has as its target T2, tobacco catalase (Nicotiana tabacum, UniProt P49319).
T2 construct: tobacco catalase activity in suspension cells and in crude leaf extracts; host or cells: tobacco suspension cells, crude leaf extracts, purified enzyme
T2 sequence (P49319 1-492): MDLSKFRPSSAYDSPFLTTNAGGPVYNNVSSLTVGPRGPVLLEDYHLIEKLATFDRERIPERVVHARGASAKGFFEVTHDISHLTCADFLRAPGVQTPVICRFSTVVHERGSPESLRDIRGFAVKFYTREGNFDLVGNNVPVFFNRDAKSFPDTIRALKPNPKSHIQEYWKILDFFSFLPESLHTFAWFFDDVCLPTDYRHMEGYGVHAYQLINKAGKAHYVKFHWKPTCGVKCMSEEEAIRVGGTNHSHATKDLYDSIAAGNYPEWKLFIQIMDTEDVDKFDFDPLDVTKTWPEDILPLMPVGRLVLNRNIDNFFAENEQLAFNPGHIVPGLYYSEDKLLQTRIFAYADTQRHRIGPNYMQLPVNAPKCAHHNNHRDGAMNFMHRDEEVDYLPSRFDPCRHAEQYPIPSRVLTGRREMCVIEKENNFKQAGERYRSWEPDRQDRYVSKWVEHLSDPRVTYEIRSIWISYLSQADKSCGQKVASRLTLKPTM
In words: Inhibition of catalase activity. Type of assay: biochemical. To be noted: unpublished data.

The target of assay [5] is T2, tobacco catalase. The conditions noted are these: cited from earlier work.
In assay [6] the test system is tobacco catalase. The conditions noted are these: in vivo; cited from earlier work.
Another assay concerns the target T3, catalase (Nicotiana tabacum, UniProt P49319).
T3 construct: has been identified in tobacco leaf extracts; host or cells: tobacco leaf extracts
T3 sequence (P49319 1-492): T2 sequence (P49319 1-492)
To be noted: cited from earlier work.

For a further assay, the system named is APX. To be noted: cited from earlier work.
Where [7] appears, read: 50-75% fraction, 0.1 μM [3H]SA, on ice 2 hours, estimated from FIG. 6, read-out: IC50 of competition for [3H]SA binding.

Each structure is given as a SMILES string. Read-outs that look alike come from different tables or passages of the source.

In the case of `O=C(O)c1cc(O)ccc1O` [2,5-dihydroxybenzoic acid], the half-maximal inhibitory concentration (IC50) on SABP2 [1] (setting [7]) was 20 µM. In addition, the Biological activity entry in [2] was “-”. Also, in assay [2] (in vivo), the “Biologically active / inactive (FIG. 6 legend)” value (“Biologically active / inactive” below) was “biologically inactive”.

With `O=C(O)c1ccccc1O` [[^3 H]SA], at SABP2 [3], the “time until binding is complete / approaches equilibrium” value is reported as “approximately 20 minutes”. At SABP2 [3] (50-75% fraction), this molecule yielded a half association time of 5 min.

As to `O=C(O)c1cccc(O)c1` [3-hydroxybenzoic acid], the 50% inhibitory concentration (IC50) on SABP2 [1] (setting [7]) is 105 µM. Besides, the Biological activity entry in assay [2] is on record as “-”. In addition, the “Biologically active / inactive” value in [2] (in vivo) is “biologically inactive”.

For `O=C(O)c1ccccc1O[C@@H]1O[C@H](CO)[C@@H](O)[C@H](O)[C@H]1O` [SA β-glucoside], in assay [2] (in vivo), the “induction of disease resistance” value is reported as “not active”.

For the molecule `O=C(O)c1c(O)cccc1O` [2,6-dihydroxybenzoic acid], the half-inhibitory concentration (IC50) at SABP2 [1] (setting [7]) was 2 µM. In addition, the Biological activity entry in assay [2] is listed as “+”. In addition, in [2] (in vivo), the “Biologically active / inactive” value is listed as “Biologically active”.

In the case of `CSC(=O)c1cccc2nnsc12` [BTH, benzo(1,2,3)thiadiazole-7-carbothioic acid S-methyl ester], the concentration for half-maximal inhibition (IC50) at SABP2 [1] stood at 0.1 µM. For the same molecule, the Biological activity result in [2] is “+”. Moreover, the “Biologically active / inactive” value in assay [2] (in vivo) was “Biologically active”. In the assay with PR-1 gene expression, the EC (15-fold) is around 3.3 µM. The “catalase inhibition compared with SA” value on tobacco catalase [4] is recorded as “more effective inhibitor of catalase than SA”.

The molecule `O=C(O)c1cc(Cl)nc(Cl)c1` [INA, 2,6-dichloroisonicotinic acid] yielded a concentration for half-maximal inhibition (IC50) at SABP2 [1] of 70 µM. Moreover, the Biological activity entry in assay [2] was “+”. Also, the “Biologically active / inactive” value in [2] (in vivo) is reported as “Biologically active”. Moreover, the “inhibition of catalase activity in crude extracts” value on tobacco catalase [5] (crude extracts) is reported as “less effective at inhibiting catalase activity in crude extracts”. In addition, the “inhibition of purified tobacco catalase” value on tobacco catalase [5] (purified enzyme) is “fails to inhibit purified tobacco catalase”. For the same molecule, the “inhibition of tobacco catalase in vivo” value in the assay on tobacco catalase [6] is reported as “effectively blocks tobacco catalase in vivo”.

Molecule `O=C(O)c1ccccc1O` [SA, salicylic acid] registered a concentration for half-maximal inhibition (IC50) on SABP2 [1] of 1.5 µM. In addition, in assay [2], the Biological activity result is reported as “+”. Besides, the “Biologically active / inactive” value in assay [2] (in vivo) is on record as “Biologically active”. The “SA level required for effective inhibition of catalase activity” value at tobacco catalase [5] is 50 to 300 µM. Moreover, the Kd at catalase ([14C]SA, tobacco leaf extracts, read-out: Kd of SA binding to catalase) is 14 µM; at SABP2 [3] (Scatchard plot, 50-75% fraction) it was 0.09 µM. For the same molecule, at catalase, the “time until binding to catalase approaches equilibrium” value is 90 to 120 min. Further, the “SA level required for effective inhibition of APX activity” value with APX is 50 to 300 µM. The “time until binding is complete / approaches equilibrium” value at SABP2 [3] was in the range of 15 to 20 min. For the same molecule, the inhibition at 1000 µM on SABP2 [3] (50-75% fraction, 1 mM SA, 0.1 μM [3H]SA, read-out: reduction of binding activity in the presence of excess unlabeled SA) is 85%. The remaining activity at 1000 µM on SABP2 [3] (100% = binding after 160 minutes of incubation, read-out: [3H]SA binding remaining after addition of 1 mM SA) was below 10%.

`O=C(O)c1cc(Cl)ccc1O` [5-chloroSA, 5-chlorosalicylic acid]: the half-inhibitory concentration (IC50) at SABP2 [1] (setting [7]) was 0.3 µM. For the same molecule, the Biological activity result in assay [2] is given as “+”. Moreover, the “Biologically active / inactive” value in assay [2] (in vivo) is on record as “Biologically active”.

Regarding `O=C(O)c1ccc(O)cc1` [4-hydroxybenzoic acid], the half-maximal inhibitory concentration (IC50) on SABP2 [1] (setting [7]) is above 1000 µM. The Biological activity entry in assay [2] is “-”. Moreover, the “Biologically active / inactive” value in [2] (in vivo) was “biologically inactive”.

A word on the IC50: it is the concentration that gives 50% inhibition. For orientation: Kd means the constant that tells how readily two partners part at equilibrium.
